Reference: the supplement of paper PMC10307832

Compound: NC(=O)[C@@H](CCC(F)(F)F)N(Cc1ccc(-c2ncon2)cc1F)S(=O)(=O)c1ccc(Cl)cc1 [Avagacestat]
Experiment: relative viability (nuclei count vs DMSO), 5 days (fraction); higher = more cells survive
How it was run: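 Five library-drug doses, separated by factors of √10, were pinned into 1536-well plates holding lung cancer cell lines after an overnight stay at 37 °C. Cells were fixed, permeabilised and Hoechst-stained in one step after 5 days without medium change, then imaged at 4×. Viability compares treated-well with vehicle-well nuclei, counted in MetaXpress, as a median across plates. Passing plates had control CV below 25% and at least one doubling.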

Cell Line | relative viability (0.08 µM) | relative viability (0.253 µM) | relative viability (0.8 µM) | relative viability (2.53 µM) | relative viability (8 µM)
NCI-H520 | 1.04 | 1.08 | 1 | 0.918 | 0.825
NCI-H1793 | 1.04 | 1.11 | 1.06 | 0.858 | 0.846
NCI-H2347 | 1.1 | 1.07 | 1.13 | 1.03 | 0.97
HARA | 0.891 | 1.17 | 1.06 | 0.963 | 0.989
NCI-H1915 | 1.04 | 1.21 | 1.06 | 1.03 | 0.978
NCI-H1734 | 1.04 | 1.19 | 1 | 1.04 | 0.994
NCI-H2342 | 0.955 | 0.906 | 0.935 | 0.888 | 0.949
CAL-12T | 1.09 | 1.12 | 1.11 | 1.11 | 1.04
PC-14 | 1.32 | 1.18 | 1.35 | 1.02 | 0.922
NCI-H2087 | 1.29 | 1.06 | 1.12 | 1.08 | 1.06
NCI-H1395 | 0.909 | 0.903 | 0.97 | 0.875 | 0.861
NCI-H1648 | 0.583 | 0.705 | 0.513 | 0.55 | 0.457
NCI-H596 | 1.06 | 0.986 | 0.985 | 1.04 | 0.936
A549 | 1.1 | 1.37 | 1.15 | 1.03 | 0.993
LC-2-ad | 1.02 | 0.985 | 1.11 | 1.03 | 0.96
EKVX | 1.17 | 1.07 | 1.19 | 0.886 | 0.871
ChaGo-K-1 | 1.13 | 0.948 | 0.969 | 0.99 | 0.889
NCI-H1792 | 1.15 | 0.866 | 1.36 | 0.859 | 0.761
NCI-H23 | 1.01 | 1.08 | 1.17 | 1.03 | 0.944

Cell Line | relative viability (0.08 µM) | relative viability (0.253 µM) | relative viability (0.8 µM) | relative viability (2.53 µM) | relative viability (8 µM)
NCI-H2126 | 0.994 | 1.04 | 1.06 | 0.921 | 0.936
LXF-289 | 0.995 | 1.05 | 1.05 | 0.994 | 0.975
NCI-H1437 | 1.09 | 0.997 | 1.1 | 0.915 | 0.877
NCI-H647 | 0.992 | 1.07 | 1.13 | 0.922 | 0.899
NCI-H838 | 1.03 | 1.11 | 1.05 | 0.894 | 0.935
NCI-H727 | 1.06 | 0.987 | 0.948 | 1.02 | 0.837
NCI-H661 | 1.02 | 1.2 | 1.04 | 0.85 | 1.02
201T | 0.995 | 1 | 1.1 | 0.927 | 0.965
PC-3 [JPC-3] | 1.2 | 1.08 | 1.25 | 1.05 | 1.02
HCC-366 | 1.04 | 1.17 | 1.07 | 1.11 | 1.11
NCI-H1355 | 1.07 | 1.2 | 1.03 | 0.876 | 0.874
RERF-LC-KJ | 1.07 | 1.1 | 1.04 | 0.945 | 0.856
LK-2 | 1.28 | 1.22 | 0.784 | 0.604 | 0.874
COR-L23 | 1.16 | 1.24 | 0.989 | 0.921 | 0.901
NCI-H1944 | 1.06 | 1.15 | 0.924 | 0.865 | 0.922
HCC-827 | 1.1 | 1.09 | 1.11 | 1.09 | 1.11
NCI-H3122 | 1.07 | 1.08 | 1.05 | 0.995 | 0.927
UMC-11 | 1.04 | 1.07 | 1.1 | 1.02 | 1.06
EMC-BAC-2 | 1.22 | 1.08 | 1.15 | 1.08 | 1.1
